Laboratory results from patent US7179825B2, “Retinoic acid mimetic anilides” (Janssen Pharmaceutica N.V., priority 1997, dated 2007).

Legend:
Ovariectomized rats = experiment: Vaginal keratinization test on ovariectomized rats (Example C.2); assay type: in vivo; conditions: estradiol undecylate induced keratinization, per os once daily on days 1-3, active dose = 50% of rats show complete suppression
Outline: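 Value is the lowest oral dose (mg/kg) at which half of tested rats show complete suppression of estradiol undecylate-induced vaginal keratinization by histology. Ovariectomized rats received 100 μg/100 g estradiol undecylate s.c., then compound or PEG 200 vehicle p.o. daily for three days; sacrifice one day later.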

[1] = system: metabolism of retinoic acid in human breast cancer cells; experiment: Inhibition of retinoic acid (RA) metabolism (Example C.1); assay type: cell-based; conditions: MCF-7 human breast cancer cells, 3H-RA as substrate, concentration needed to reduce the amount of metabolites to 50% of the control
Outline: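 Test compound (in 1% DMSO) added at several concentrations to MCF-7 cell suspensions fed ³H-RA, after RA induction of metabolism one day earlier. Scintillation counting of the separated polar metabolite fraction; IC50 = concentration giving 50% of control metabolite level.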

Row | IC50 [1] | IC50 ([1]; MCF7) | Structure (SMILES) | LAD (lowest active dose) (Ovariectomized rats) | minimal effective dose (Ovariectomized rats; Rattus norvegicus, po, read-out: LAD (lowest active dose))
1 | 0.03 nM |  | CCC(CC)C(c1ccc(NC(=O)/C(C)=C/c2ccccc2)cc1)n1cncn1 (racemic) [Compound 2] | 5.00 mg/kg | 
2 | 61 nM |  | CCC(CC)C(c1ccc(NC(=O)C2=COc3ccccc3O2)cc1)n1ccnc1 (racemic) [Compound 25] | 10.00 mg/kg | 
3 | 35.5 nM |  | CC(=Cc1ccccc1)C(=O)Nc1ccc(C(CC(C)(C)C)n2ccnc2)cc1 (stereo not shown) [Compound 476] | >10.00 mg/kg | 
4 | 2.59 nM |  | CC(C)C(c1ccc(NC(=O)c2cnc3ccccc3c2)cc1)n1ccnc1 (racemic) [Compound 241] | 10.00 mg/kg | 
5 | 4.25 nM |  | CCC(C)C(c1ccc(NC(=O)C(C)=Cc2ccccc2)cc1)n1ccnc1 (mixture of isomers) [Compound 480] | 10.00 mg/kg | 
6 | 4.83 nM |  | COc1ccc(CC(=O)Nc2ccc(C(C(C)C)n3cncn3)cc2)cc1OC.O (stereo not shown) [Compound 136] | 5.00 mg/kg | 
7 | 0.852 nM |  | CCC(CC)C(c1ccc(NC(=O)Cc2ccc(Cl)cc2OC)cc1)n1ccnc1 (racemic) [Compound 113] | >2.50 mg/kg | 
8 | 3.92 nM |  | CCC(CC)C(c1ccc(NC(=O)Cc2ccc(OC)c(C)c2)cc1)n1cncn1 (single isomer, unassigned) [Compound 85] | 2.50 mg/kg | 
9 | 1.34 nM |  | CC(C)C(c1ccc(NC(=O)Cc2ccc(F)cc2)cc1)n1ccnc1 (racemic) [Compound 653] | 5.00 mg/kg | 
10 | 8.77 nM |  | CCCCC(CC)C(c1ccc(NC(=O)C(C)=Cc2ccccc2)cc1)n1ccnc1 (mixture of isomers) [Compound 493] | >2.50 mg/kg | 
11 | 2.8 nM |  | CN(C)CC(c1ccc(NC(=O)Oc2ccccc2)cc1)n1ccnc1 (racemic) [Compound 435] | >2.50 mg/kg | 
12 | 1.08 nM |  | CC(C)(C)CC(c1ccc(NC(=O)Cc2ccc(Cl)cc2)cc1)n1ccnc1 (racemic) [Compound 360] | 2.50 mg/kg | 
13 | 19.3 nM |  | CC(C)C(c1ccc(NC(=O)Nc2ccc(Cl)c(Cl)c2)cc1)n1ccnc1 (racemic) [Compound 732] | >10.00 mg/kg | 
14 | 2.98 nM |  | CC(C)C(c1ccc(NC(=O)Cc2ccc(O)cc2)cc1)n1cncn1 (stereo not shown) [Compound 134] | 5.00 mg/kg | 
15 | 3.8 nM |  | CCCC(=C(C)C(=O)Nc1ccc(C(C(C)C)n2ccnc2)cc1)c1ccccc1 (mixture of isomers) [Compound 519] | >10.00 mg/kg | 
16 | 0.148 nM |  | CCC(CC)C(c1ccc(NC(=O)Cc2ccc(F)cc2)cc1)n1ccnc1 (racemic) [Compound 88] | 2.50 mg/kg | 
17 | 1.34 nM |  | CC(C)C(c1ccc(NC(=O)Cc2ccc3ccccc3c2)cc1)n1ccnc1 (racemic) [Compound 240] | 10.00 mg/kg | 
18 | 4.73 nM |  | CC(C)C(c1ccc(NC(=O)CSc2ncccn2)cc1)n1ccnc1 (stereo not shown) [Compound 224] | >10.00 mg/kg | 
19 | 3.07 nM |  | CCC(C(c1ccc(NC(=O)Cc2ccc(OC)c(OC)c2)cc1)n1cncn1)N(C)C (single isomer, unassigned) [Compound 646] | 5.00 mg/kg | 
20 | 31 nM |  | CC(=Cc1cccc(Cl)c1)C(=O)Nc1ccc(C(C(C)C)n2cncn2)cc1 (racemic) [Compound 156] | >10.00 mg/kg | 

Second part, the compound before the results:

Row | Structure (SMILES) | IC50 [1] | IC50 ([1]; MCF7) | LAD (lowest active dose) (Ovariectomized rats) | minimal effective dose (Ovariectomized rats; Rattus norvegicus, po, read-out: LAD (lowest active dose))
21 | CCC(CC)C(c1ccc(NC(=O)Cc2ccc(OCc3ccccn3)cc2)cc1)n1ccnc1 (racemic) [Compound 121] | 0.914 nM |  | >2.50 mg/kg | 
22 | C/C(=C\c1cccc(Cl)c1)C(=O)Nc1ccc(C(C(C)C)n2ccnc2)cc1 (racemic) [Compound 577] | 42.3 nM |  | 10.00 mg/kg | 
23 | CCC(CC)C(c1ccc(NC(=O)Cc2ccc(N(C)C)cc2)cc1)n1ccnc1 (racemic) [Compound 99] | 5.77 nM |  | 2.50 mg/kg | 
24 | CC(C)C(c1ccc(NC(=O)/C(=C/c2ccccc2)C2CCCCC2)cc1)n1ccnc1 (racemic) [Compound 473] | > 100 nM |  | >10.00 mg/kg | 
25 | C/C(=C\c1ccccc1)C(=O)Nc1ccc(C(C2CCCCC2)n2ccnc2)cc1 (racemic) [Compound 463] | 24.5 nM |  | 20.00 mg/kg | 
26 | COc1cc(CC(=O)Nc2ccc(C(C(C)C)n3ccnc3)cc2)cc(OC)c1OC (stereo not shown) [Compound 139] | 1.75 nM |  | 10.00 mg/kg | 
27 | CCN(CC)C(C)C(c1ccc(NC(=O)Cc2ccc(OC)c(OC)c2)cc1)n1cncn1 (single isomer, unassigned) [Compound 649] | 7.32 nM |  | 5.00 mg/kg | 
28 | CCC(CC)C(c1ccc(NC(=O)Cc2cc(C)ccc2C)cc1)n1ccnc1 (racemic) [Compound 106] | 1.69 nM |  | 2.50 mg/kg | 
29 | C/C(=C\c1ccccc1)C(=O)Nc1ccc(C(C(C)C)n2ccnc2)cc1 (single isomer, unassigned) [Compound 458] | 3.22 nM |  | 5.00 mg/kg | 
30 | CC(C)C(c1ccc(NC(=O)C2CCCCC2)cc1)n1ccnc1 (racemic) [Compound 174] | 1.6 nM |  | 10.00 mg/kg | 
31 | Cc1cc(CC(=O)Nc2ccc(C(C(C)N(C)C)n3cncn3)cc2)cc(C)c1C (single isomer, unassigned) [Compound 291] | 4.23 nM |  | >2.50 mg/kg | 
32 | CC(C)C(c1ccc(NC(=O)NCc2ccc(Cl)cc2)cc1)n1ccnc1 (stereo not shown) [Compound 273] | 52.7 nM |  | >10.00 mg/kg | 
33 | CC(C)C(c1ccc(NC(=O)Nc2ccccc2F)cc1)n1ccnc1 (racemic) [Compound 726] | 3.71 nM |  | 5.00 mg/kg | 
34 | CCC(C)C(c1ccc(NC(=O)Cc2ccc(Cl)cc2)cc1)n1ccnc1 (racemic) [Compound 364] | 1.41 nM |  | 2.50 mg/kg | 
35 | CCCCOc1ccc(CC(=O)Nc2ccc(C(C(CC)CC)n3ccnc3)cc2)cc1 (racemic) [Compound 96] | 1.09 nM |  | 2.50 mg/kg | 
36 | CC(C)C(c1ccc(NC(=O)Nc2ccccn2)cc1)n1ccnc1 (racemic) [Compound 274, (±)-N-(2-pyridinyl)-N′-[4-[1-(1H-imidazol-1-yl)-2-methylpropyl]phenyl]urea] |  | 6.64 nM |  | > 10 mg/kg
37 | CC(C)C(c1ccc(NC(=O)C(c2ccccc2)C2CCCC2)cc1)n1ccnc1 (mixture of isomers) [Compound 659] | > 100 nM |  | >10.00 mg/kg | 

Row | Structure (SMILES) | IC50 [1] | IC50 ([1]; MCF7) | LAD (lowest active dose) (Ovariectomized rats) | minimal effective dose (Ovariectomized rats; Rattus norvegicus, po, read-out: LAD (lowest active dose))
38 | CCC(CC)C(c1ccc(NC(=O)Cc2ccccc2C)cc1)n1ccnc1 (racemic) [Compound 104] | 0.0407 nM |  | 2.50 mg/kg | 
39 | CC(C)C(c1ccc(NC(=O)CSc2ccncc2)cc1)n1ccnc1 (racemic) [Compound 239] | 0.728 nM |  | 10.00 mg/kg | 
40 | CC(=CCCc1ccccc1)C(=O)Nc1ccc(C(C(C)C)n2ccnc2)cc1 (racemic) [Compound 587] | 31.6 nM |  | >10.00 mg/kg | 
41 | CCC(CC)C(c1ccc(NC(=O)Cc2ccccc2O)cc1)n1ccnc1 (racemic) [Compound 107] | 1.44 nM |  | >2.50 mg/kg | 
42 | CCC(CC)C(c1ccc(NC(=O)Cc2ccc(O)cc2C)cc1)n1ccnc1 (stereo not shown) [Compound 129] | 0.0236 nM |  | 2.50 mg/kg | 
43 | CC(C)C(c1ccc(NC(N)=Nc2ccccc2)cc1)n1ccnc1 (stereo not shown) [Compound 743] | 11 nM |  | >10.00 mg/kg | 
44 | CCOc1ccc(CC(=O)Nc2ccc(C(C(C)N(C)C)n3cncn3)cc2)cc1OCC (single isomer, unassigned) [Compound 293] | 6.53 nM |  | >2.50 mg/kg | 
45 | CC(C)C(c1ccc(NC(=O)Nc2ccc(Cl)cc2)cc1)n1ccnc1 (racemic) [Compound 739] | 42.1 nM |  | >10.00 mg/kg | 
46 | O=C(Nc1ccc(C(c2ccccc2)n2ccnc2)cc1)Nc1cccc(F)c1 (racemic) [Compound 735] | > 100 nM |  | 10.00 mg/kg | 
47 | CCOc1ccc(CC(=O)Nc2ccc(C(C(C)N(C)C)n3ccnc3)cc2)cc1OCC (single isomer, unassigned) [Compound 301] | 6.05 nM |  | >2.50 mg/kg | 
48 | CC(C)C(c1ccc(NC(=O)CC2COc3ccccc3O2)cc1)n1cncn1 (stereo not shown) [Compound 162] | 2.88 nM |  | >5.00 mg/kg | 
49 | CCC(CC)C(c1ccc(NC(=O)C(O)c2ccc(OC)c(OC)c2)cc1)n1ccnc1 (stereo not shown) [Compound 56] | 0.0251 nM |  | >5.00 mg/kg | 
50 | CC(C)C(c1ccc(NC(=O)Cc2ccc([N+](=O)[O-])cc2)cc1)n1ccnc1 (stereo not shown) [Compound 151] | 2.11 nM |  | 5.00 mg/kg | 
51 | CCC(CC)C(c1ccc(NC(=O)C2COc3ccccc3O2)cc1)n1ccnc1 (mixture of isomers) [Compound 23] | 0.503 nM |  | 2.50 mg/kg | 
52 | CCC(CC)C(c1ccc(NC(=O)Cc2ccc(OC)c(C)c2)cc1)n1cncn1 (single isomer, unassigned) [Compound 86] | 0.497 nM |  | 2.50 mg/kg | 
53 | CCC(CC)C(c1ccc(NC(=O)CCCc2ccc(OC)c(OC)c2)cc1)n1cncn1 (stereo not shown) [Compound 8] | 0.0937 nM |  | >2.50 mg/kg | 
